Patent US4891373A, “Aminopropanol derivatives of 1,4:3,6-dianhydrohexitol nitrates, processes for their preparation and their use as medicaments” (Pfizer Inc., priority 1988, dated 1990)

Assays:
[1] = test system: T-wave increase in the ECG induced by lypressin; experiment: Influence on the T-wave increase in the ECG of the anesthetized rat induced by intravenous bolus injection of lypressin; assay type: in vivo; details: p.o.
Method: Influence of various compounds on the T-wave
increase in the ECG of the anesthetized rat induced by
intravenous bolus injection of lypressin was determined
following the method of M. Leitold et al., Drug Res.,
36, 1454 (1986). The substances were administered
perorally 30 minutes or at various times before the […]

[2] = Survival rate of rats after an acute coronary ligature; assay type: in vivo, rat
Method: Influence of various substances on the survival
rate of rats 60 minutes, 24 hours and 7 days after an
acute coronary ligature was determined following the
method of I. Lepran, et al., L. Szekeres, Acta
Physiologica Sci. Hungaricae 53, 190 (1979). The
substances were administered orally 5 minutes before
the acute coronary ligature.

[3] = test system: systolic blood pressure (SBP) and heart rate (HR); experiment: Systolic blood pressure and heart rate following peroral administration to conscious beagle dogs; assay type: in vivo, beagle dog; details: mean ± SEM
From the text: Duration of the action of various substances on the systolic blood
heart rate (HR) following peroral administration to conscious beagle

[4] = Tolerance of peroral dose in mice; details: mouse, in vivo, po
From the text: Set forth below is data obtained on the compounds of Examples 17, 19 and 20 that illustrates the pharmacological action of the compounds of the present invention.

[5] = test system: cardiovascular parameters (MAP, HR, LVSP, LVEDP, dp/dtmax, TPR, PAP, SV, CO); experiment: Cardiovascular actions following intravenous administration to anesthetized dogs (pentobarbital) with opened thorax and artificial respiration; assay type: in vivo, dog; details: for CO (cardiac output), change / PAP (blood pressure in the A. pulmonalis), change / SV (stroke volume), change: vs pre-value, unsigned
From the text: (§1) venous administration to anesthetized dogs (pentobarbital)
(§2) with an opened thorax and artificial respiration.
as §1, §2

[6] = 60 minutes, 100.0 mg/kg orally 5 min before ligature
[7] = 24 hours, 100.0 mg/kg orally 5 min before ligature
[8] = 7 days, 100.0 mg/kg orally 5 min before ligature

SMILES | Duration of action at the ED50 dose [1] [h] | Number of rats surviving after an acute coronary ligature [2, 6] | Number of rats surviving after an acute coronary ligature [2, 7] | Number of rats surviving after an acute coronary ligature [2, 8] | HR (heart rate), action of substance ([3]; 5.0 mg/kg p.o., after 3 hours) [Bts/M] | SBP (systolic blood pressure), action of substance ([3]; 5.0 mg/kg p.o., after 3 hours) [mmHg] | HR (heart rate), action of substance ([3]; 5.0 mg/kg p.o., after 6 hours) [Bts/M] | Tolerated peroral dose [4] [mg/kg] | CO (cardiac output), action of substance ([5]; 30 μg/kg i.v.) [l/M] | CO (cardiac output), duration of action ([5]; 30 μg/kg i.v.) [min] | PAP (blood pressure in the A. pulmonalis), action of substance ([5]; 30 μg/kg i.v.) [mmHg] | PAP (blood pressure in the A. pulmonalis), duration of action ([5]; 30 μg/kg i.v.) [min] | SV (stroke volume), duration of action ([5]; 30 μg/kg i.v.) [min] | CO (cardiac output), change ([5]; 30 μg/kg i.v.) [l/M] | PAP (blood pressure in the A. pulmonalis), change ([5]; 30 μg/kg i.v.) [mmHg] | SV (stroke volume), change ([5]; 30 μg/kg i.v.) [mL/s] | CO (cardiac output), duration of action ([5]; 300 μg/kg i.v.) [min] | PAP (blood pressure in the A. pulmonalis), duration of action ([5]; 300 μg/kg i.v.) [min] | SV (stroke volume), action of substance ([5]; 300 μg/kg i.v.) [mL/s] | SV (stroke volume), duration of action ([5]; 300 μg/kg i.v.) [min] | other results
COc1ccccc1N1CCN(CC(O)CO[C@@H]2CO[C@H]3[C@@H]2OC[C@H]3O[N+](=O)[O-])CC1 (stereo partly drawn) [Example 19, 5-O-<3-[4-(2-Methoxyphenyl)-piperazinyl]-2-hydroxypropyl>-isomannide-2-nitrate] | 4 | 15/20 | 15/20 | 15/20 | 85 ± 5 | 118 ± 6 | 86 ± 5 | 500 | – | – | – | – | – | – | – | – | – | – | – | – | HR (heart rate), action of substance ([3]; 5.0 mg/kg p.o., after 2 hours): 90 ± 5 Bts/M
COc1ccccc1N1CCN(CC(O)CO[C@H]2CO[C@H]3[C@@H]2OC[C@H]3O[N+](=O)[O-])CC1 (stereo partly drawn) [Example 17, 2-O-<3-[4-(2-Methoxyphenyl)-piperazinyl]-2-hydroxypropyl>-isosorbide-5-nitrate] | 2 | – | – | – | – | – | – | 500 | 0.93 ± 0.07 | 6 ± 3 | 17.0 ± 4 | 2 ± 0.3 | 2 ± 0.2 | 0.07 ± 0.04 | 1.3 ± 0.5 | 0.4 ± 0.2 | 73 ± 40 | 1.4 ± 0.1 | 3.7 ± 0.4 | 74 ± 43 | Number of rats surviving after an acute coronary ligature ([2]; 60 minutes, 30.0 mg/kg orally 5 min before ligature): 17/20; Number of rats surviving after an acute coronary ligature ([2]; 24 hours, 30.0 mg/kg orally 5 min before ligature): 17/20; Number of rats surviving after an acute coronary ligature ([2]; 7 days, 30.0 mg/kg orally 5 min before ligature): 17/20; PAP (blood pressure in the A. pulmonalis), change ([5]; 300 μg/kg i.v.): 1.5 ± 0.5 mmHg; SV (stroke volume), change ([5]; 300 μg/kg i.v.): 0.7 ± 0.3 mL/s; CO (cardiac output), duration of action ([5]; 3000 μg/kg i.v.): > 75 min; PAP (blood pressure in the A. pulmonalis), duration of action ([5]; 3000 μg/kg i.v.): 2 ± 0.6 min; SV (stroke volume), action of substance ([5]; 3000 μg/kg i.v.): 3.0 ± 0.6 mL/s; SV (stroke volume), duration of action ([5]; 3000 μg/kg i.v.): > 75 min; CO (cardiac output), change ([5]; 3000 μg/kg i.v.): 0.450 ± 0.025 l/m; PAP (blood pressure in the A. pulmonalis), change ([5]; 3000 μg/kg i.v.): 2.3 ± 0.8 mmHg; SV (stroke volume), change ([5]; 3000 μg/kg i.v.): 2.6 ± 0.4 mL/s; SBP (systolic blood pressure), action of substance ([3]; 6.0 mg/kg p.o., after 1 hour): 91 ± 6 mmHg; HR (heart rate), action of substance ([3]; 6.0 mg/kg p.o., after 2 hours): 110 ± 16 Bts/M; SBP (systolic blood pressure), action of substance ([3]; 6.0 mg/kg p.o., after 2 hours): 89 ± 4 mmHg; HR (heart rate), action of substance ([3]; 6.0 mg/kg p.o., after 3 hours): 89 ± 8 Bts/M; SBP (systolic blood pressure), action of substance ([3]; 6.0 mg/kg p.o., after 3 hours): 97 ± 5 mmHg; HR (heart rate), action of substance ([3]; 6.0 mg/kg p.o., after 6 hours): 89 ± 5 Bts/M; HR (heart rate), action of substance ([3]; 6.0 mg/kg p.o., after 8 hours): 85 ± 7 Bts/M
COc1ccccc1N1CCN(CC(O)CO[C@H]2CO[C@H]3[C@@H]2OC[C@@H]3O[N+](=O)[O-])CC1 (stereo partly drawn) [Example 20, 5-O-<3-[4-(2-Methoxyphenyl)-piperazinyl]-2-hydroxypropyl>-isoidide-2-nitrat] | 4 | 14/20 | 14/20 | 14/20 | 82 ± 7 | 106 ± 4 | 78 ± 6 | 500 | 0.81 ± 0.3 | 12 ± 6 | 16.0 ± 1 | 11 ± 6 | 12 ± 6 | 0.38 ± 0.1 | 0.4 ± 0.2 | 2.3 ± 1 | 35 ± 23 | 14 ± 13 | 7.2 ± 2.5 | 33 ± 23 | SV (stroke volume), action of substance ([5]; 30 μg/kg i.v.): 7.5 ± 2 mL/s; CO (cardiac output), change ([5]; 300 μg/kg i.v.): 0.21 ± 0.6 l/M; PAP (blood pressure in the A. pulmonalis), change ([5]; 300 μg/kg i.v.): 0.7 ± 0.3 mmHg; SV (stroke volume), change ([5]; 300 μg/kg i.v.): 0.5 ± 2.9 mL/s; CO (cardiac output), duration of action ([5]; 3000 μg/kg i.v.): 3 ± 0.4 min; PAP (blood pressure in the A. pulmonalis), duration of action ([5]; 3000 μg/kg i.v.): > 177 min; SV (stroke volume), duration of action ([5]; 3000 μg/kg i.v.): 4 ± 0.0 min; CO (cardiac output), change ([5]; 3000 μg/kg i.v.): 0.87 ± 0.7 l/m; PAP (blood pressure in the A. pulmonalis), change ([5]; 3000 μg/kg i.v.): 1.1 ± 0.3 mmHg; HR (heart rate), action of substance ([3]; 5.0 mg/kg p.o., after 1 hour): 98 ± 7 Bts/M; SBP (systolic blood pressure), action of substance ([3]; 5.0 mg/kg p.o., after 1 hour): 97 ± 8 mmHg; SBP (systolic blood pressure), action of substance ([3]; 5.0 mg/kg p.o., after 2 hours): 95 ± 6 mmHg; HR (heart rate), action of substance ([3]; 5.0 mg/kg p.o., after 8 hours): 77 ± 6 Bts/M
